Reference: US12343326B2, “Psychoactive medicines and their use for treating psychiatric and neurological conditions and disorders” (Transcend Therapeutics, Inc., priority 2021, dated 2025)

Legend:
Experiment in all cases: β-arrestin based GPCR screen (PathHunter / GPCRmax), agonist mode
Assay type in all cases: cell-based
Set-up in all cases: host or cells: PathHunter cell lines
[1] = biological target: 168 GPCRs (Homo sapiens, UniProt Q9Y5N1)
Experimental: (§1) For agonist determination, cells were incubated with sample to induce response. […] Vehicle concentration was 1%.

[2] = biological target: 168 GPCRs (Homo sapiens, UniProt P43088); details: PTGFR
Sequence of 168 GPCRs (Homo sapiens, UniProt P43088) (P43088 whole entry): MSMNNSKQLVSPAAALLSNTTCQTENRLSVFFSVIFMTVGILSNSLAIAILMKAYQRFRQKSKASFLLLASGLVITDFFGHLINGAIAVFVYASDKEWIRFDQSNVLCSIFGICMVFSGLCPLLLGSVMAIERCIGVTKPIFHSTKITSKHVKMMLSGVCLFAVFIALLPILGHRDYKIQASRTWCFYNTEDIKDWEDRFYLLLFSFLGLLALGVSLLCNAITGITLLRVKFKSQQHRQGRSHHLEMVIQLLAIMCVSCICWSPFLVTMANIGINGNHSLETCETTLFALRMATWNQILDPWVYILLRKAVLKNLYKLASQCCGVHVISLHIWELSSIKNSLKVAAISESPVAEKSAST
Experimental: as §1

[3] = biological target: 168 GPCRs (Homo sapiens, UniProt P43116)
Sequence of 168 GPCRs (Homo sapiens, UniProt P43116) (P43116 whole entry): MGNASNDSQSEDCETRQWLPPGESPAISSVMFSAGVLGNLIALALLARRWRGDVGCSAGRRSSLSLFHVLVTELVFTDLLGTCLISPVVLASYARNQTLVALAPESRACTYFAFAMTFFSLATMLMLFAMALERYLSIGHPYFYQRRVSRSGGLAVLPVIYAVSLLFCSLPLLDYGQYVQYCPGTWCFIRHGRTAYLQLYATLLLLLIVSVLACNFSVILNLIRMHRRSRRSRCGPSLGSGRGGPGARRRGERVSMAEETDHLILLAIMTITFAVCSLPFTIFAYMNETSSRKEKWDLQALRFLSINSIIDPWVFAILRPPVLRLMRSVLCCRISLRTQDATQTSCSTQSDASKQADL
Experimental: as §1

[4] = biological target: 168 GPCRs (Homo sapiens, UniProt P49019); details: GPR109B
Sequence of 168 GPCRs (Homo sapiens, UniProt P49019) (P49019 whole entry): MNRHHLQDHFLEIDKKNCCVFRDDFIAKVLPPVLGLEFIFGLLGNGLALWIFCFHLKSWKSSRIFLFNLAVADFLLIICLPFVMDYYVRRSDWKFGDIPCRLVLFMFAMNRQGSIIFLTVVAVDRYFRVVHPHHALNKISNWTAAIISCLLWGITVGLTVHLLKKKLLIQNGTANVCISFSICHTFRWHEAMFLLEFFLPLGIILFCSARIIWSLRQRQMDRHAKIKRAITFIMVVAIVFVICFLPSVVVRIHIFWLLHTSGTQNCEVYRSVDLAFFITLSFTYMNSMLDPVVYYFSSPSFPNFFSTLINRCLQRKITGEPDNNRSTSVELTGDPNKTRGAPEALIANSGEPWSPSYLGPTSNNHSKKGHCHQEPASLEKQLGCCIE
Experimental: as §1

[5] = biological target: 168 GPCRs (Homo sapiens, UniProt P35414); details: AGTRL1, Agonist
Sequence of 168 GPCRs (Homo sapiens, UniProt P35414) (P35414 whole entry): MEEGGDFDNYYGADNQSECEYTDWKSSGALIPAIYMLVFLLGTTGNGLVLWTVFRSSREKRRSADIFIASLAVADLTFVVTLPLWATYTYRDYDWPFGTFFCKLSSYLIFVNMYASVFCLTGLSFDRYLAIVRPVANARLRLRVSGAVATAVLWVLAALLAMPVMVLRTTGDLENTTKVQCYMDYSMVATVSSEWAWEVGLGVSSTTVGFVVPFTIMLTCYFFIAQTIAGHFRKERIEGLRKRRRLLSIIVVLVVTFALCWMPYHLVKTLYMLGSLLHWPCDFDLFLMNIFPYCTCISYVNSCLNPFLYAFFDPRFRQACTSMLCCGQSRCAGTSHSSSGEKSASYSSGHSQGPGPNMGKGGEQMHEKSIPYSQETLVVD
Experimental: as §1

[6] = biological target: T1, 168 GPCRs (Homo sapiens, UniProt P24530); details: EDNRB
T1 sequence (P24530 27-442): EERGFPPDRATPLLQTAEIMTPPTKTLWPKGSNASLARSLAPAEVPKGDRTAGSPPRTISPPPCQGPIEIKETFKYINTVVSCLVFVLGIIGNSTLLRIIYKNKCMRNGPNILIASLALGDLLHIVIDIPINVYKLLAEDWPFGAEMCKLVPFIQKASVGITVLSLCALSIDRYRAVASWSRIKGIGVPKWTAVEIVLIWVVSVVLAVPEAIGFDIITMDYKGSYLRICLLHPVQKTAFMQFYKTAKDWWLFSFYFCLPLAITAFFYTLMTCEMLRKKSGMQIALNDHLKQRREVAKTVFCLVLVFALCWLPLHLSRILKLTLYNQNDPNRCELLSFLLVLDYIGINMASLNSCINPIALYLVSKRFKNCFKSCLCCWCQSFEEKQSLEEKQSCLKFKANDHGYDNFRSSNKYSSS
Experimental: as §1

[7] = biological target: 168 GPCRs (Homo sapiens, UniProt P35408)
Experimental: as §1

[8] = biological target: 168 GPCRs (Homo sapiens, UniProt P47211)
Experimental: as §1

[9] = biological target: 168 GPCRs (Homo sapiens, UniProt P35367)
Sequence of 168 GPCRs (Homo sapiens, UniProt P35367) (P35367 whole entry): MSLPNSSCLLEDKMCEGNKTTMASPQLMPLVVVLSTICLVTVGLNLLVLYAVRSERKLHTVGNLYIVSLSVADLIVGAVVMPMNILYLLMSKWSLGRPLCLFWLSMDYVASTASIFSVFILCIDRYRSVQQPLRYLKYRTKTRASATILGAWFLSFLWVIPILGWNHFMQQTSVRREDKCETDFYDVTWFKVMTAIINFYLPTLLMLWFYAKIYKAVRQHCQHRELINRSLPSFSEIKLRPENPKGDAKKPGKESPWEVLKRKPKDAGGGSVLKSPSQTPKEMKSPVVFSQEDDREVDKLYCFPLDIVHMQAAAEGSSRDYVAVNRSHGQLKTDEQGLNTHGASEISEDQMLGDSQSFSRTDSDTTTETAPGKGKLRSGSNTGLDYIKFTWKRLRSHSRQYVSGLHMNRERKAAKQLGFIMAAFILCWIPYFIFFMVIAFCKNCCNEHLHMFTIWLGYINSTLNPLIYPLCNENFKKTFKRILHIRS
Experimental: as §1

[10] = biological target: 168 GPCRs (Homo sapiens, UniProt O43614)
Sequence of 168 GPCRs (Homo sapiens, UniProt O43614) (O43614 whole entry): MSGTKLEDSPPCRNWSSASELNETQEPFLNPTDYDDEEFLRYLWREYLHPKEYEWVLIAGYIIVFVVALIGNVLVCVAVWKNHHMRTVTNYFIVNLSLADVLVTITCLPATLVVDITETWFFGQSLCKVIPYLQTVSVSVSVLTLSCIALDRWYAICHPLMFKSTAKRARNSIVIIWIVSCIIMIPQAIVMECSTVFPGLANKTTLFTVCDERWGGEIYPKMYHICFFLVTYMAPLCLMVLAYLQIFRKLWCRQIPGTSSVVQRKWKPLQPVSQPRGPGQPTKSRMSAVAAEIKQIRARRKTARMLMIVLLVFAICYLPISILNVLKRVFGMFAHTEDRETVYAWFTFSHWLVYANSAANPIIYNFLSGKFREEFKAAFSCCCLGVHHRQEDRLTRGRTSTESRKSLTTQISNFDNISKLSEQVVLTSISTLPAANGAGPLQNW
Experimental: as §1

[11] = biological target: 168 GPCRs (Homo sapiens, UniProt O43193); details: MLNR
Sequence of 168 GPCRs (Homo sapiens, UniProt O43193) (O43193 whole entry): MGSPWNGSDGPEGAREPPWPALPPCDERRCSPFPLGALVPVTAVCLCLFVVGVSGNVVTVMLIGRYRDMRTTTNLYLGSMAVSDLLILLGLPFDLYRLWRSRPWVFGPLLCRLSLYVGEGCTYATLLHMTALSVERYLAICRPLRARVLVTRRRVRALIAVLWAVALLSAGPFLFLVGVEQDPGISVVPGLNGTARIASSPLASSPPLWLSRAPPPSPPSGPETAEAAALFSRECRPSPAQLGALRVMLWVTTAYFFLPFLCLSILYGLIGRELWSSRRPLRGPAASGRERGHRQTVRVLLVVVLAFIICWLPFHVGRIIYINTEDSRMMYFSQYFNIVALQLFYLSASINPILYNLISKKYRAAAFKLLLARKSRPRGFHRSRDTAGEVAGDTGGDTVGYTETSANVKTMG
Experimental: as §1

[12] = biological target: 168 GPCRs (Homo sapiens, UniProt P41145)
Experimental: as §1

[13] = biological target: T2, 168 GPCRs (Homo sapiens, UniProt Q5NUL3)
T2 sequence (Q5NUL3 1-361): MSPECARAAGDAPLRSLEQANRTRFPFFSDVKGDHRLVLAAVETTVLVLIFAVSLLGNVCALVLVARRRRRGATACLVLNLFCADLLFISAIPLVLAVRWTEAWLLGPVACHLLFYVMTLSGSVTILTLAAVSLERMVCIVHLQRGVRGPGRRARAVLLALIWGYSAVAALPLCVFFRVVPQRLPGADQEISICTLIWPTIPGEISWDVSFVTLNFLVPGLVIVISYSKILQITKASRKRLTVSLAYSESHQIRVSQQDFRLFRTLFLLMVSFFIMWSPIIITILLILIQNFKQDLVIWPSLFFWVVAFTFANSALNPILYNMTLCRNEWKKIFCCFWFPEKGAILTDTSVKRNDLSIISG
Experimental: as §1

[14] = biological target: 168 GPCRs (Homo sapiens, UniProt Q16581); details: C3AR1, Agonist
Sequence of 168 GPCRs (Homo sapiens, UniProt Q16581) (Q16581 whole entry): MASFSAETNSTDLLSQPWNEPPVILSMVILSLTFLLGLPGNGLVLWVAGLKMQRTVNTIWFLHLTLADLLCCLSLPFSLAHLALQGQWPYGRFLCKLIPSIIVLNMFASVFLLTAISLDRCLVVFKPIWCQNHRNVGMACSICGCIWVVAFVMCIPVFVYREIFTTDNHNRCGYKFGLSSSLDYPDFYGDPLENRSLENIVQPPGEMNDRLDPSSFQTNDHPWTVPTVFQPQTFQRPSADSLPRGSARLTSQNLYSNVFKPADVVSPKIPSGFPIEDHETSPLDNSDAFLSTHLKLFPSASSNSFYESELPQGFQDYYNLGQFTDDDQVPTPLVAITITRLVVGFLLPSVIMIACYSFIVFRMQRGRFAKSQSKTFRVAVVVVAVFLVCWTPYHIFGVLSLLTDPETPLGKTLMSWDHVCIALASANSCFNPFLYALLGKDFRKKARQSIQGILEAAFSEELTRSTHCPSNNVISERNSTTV
Experimental: as §1

[15] = biological target: 168 GPCRs (Homo sapiens, UniProt P11229); details: CHRM1, Agonist
Sequence of 168 GPCRs (Homo sapiens, UniProt P11229) (P11229 whole entry): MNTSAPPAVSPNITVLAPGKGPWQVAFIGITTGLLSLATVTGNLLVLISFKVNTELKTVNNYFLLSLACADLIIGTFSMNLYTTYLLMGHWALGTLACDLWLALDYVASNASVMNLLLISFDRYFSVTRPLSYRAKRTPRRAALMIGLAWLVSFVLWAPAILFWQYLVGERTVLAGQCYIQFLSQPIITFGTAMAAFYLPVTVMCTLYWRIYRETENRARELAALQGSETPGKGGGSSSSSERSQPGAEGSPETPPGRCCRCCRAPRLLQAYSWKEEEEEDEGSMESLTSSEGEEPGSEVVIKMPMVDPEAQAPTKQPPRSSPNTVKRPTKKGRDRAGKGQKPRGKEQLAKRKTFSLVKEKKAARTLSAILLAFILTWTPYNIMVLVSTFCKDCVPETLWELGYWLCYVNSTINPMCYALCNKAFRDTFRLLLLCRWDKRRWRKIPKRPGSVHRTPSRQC
Experimental: as §1

[16] = biological target: 168 GPCRs (Homo sapiens, UniProt Q9H1C0)
Sequence of 168 GPCRs (Homo sapiens, UniProt Q9H1C0) (Q9H1C0 whole entry): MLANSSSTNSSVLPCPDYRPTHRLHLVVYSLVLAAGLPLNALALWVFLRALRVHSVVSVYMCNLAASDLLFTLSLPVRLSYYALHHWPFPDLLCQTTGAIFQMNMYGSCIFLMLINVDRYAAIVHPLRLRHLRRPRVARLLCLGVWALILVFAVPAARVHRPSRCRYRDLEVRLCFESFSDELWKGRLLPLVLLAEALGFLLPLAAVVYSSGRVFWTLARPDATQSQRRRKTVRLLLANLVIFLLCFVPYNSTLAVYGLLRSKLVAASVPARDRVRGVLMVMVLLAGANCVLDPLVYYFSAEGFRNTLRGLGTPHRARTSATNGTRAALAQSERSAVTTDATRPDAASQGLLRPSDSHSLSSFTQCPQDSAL
Experimental: as §1

[17] = biological target: 168 GPCRs (Homo sapiens, UniProt P46091)
Sequence of 168 GPCRs (Homo sapiens, UniProt P46091) (P46091 whole entry): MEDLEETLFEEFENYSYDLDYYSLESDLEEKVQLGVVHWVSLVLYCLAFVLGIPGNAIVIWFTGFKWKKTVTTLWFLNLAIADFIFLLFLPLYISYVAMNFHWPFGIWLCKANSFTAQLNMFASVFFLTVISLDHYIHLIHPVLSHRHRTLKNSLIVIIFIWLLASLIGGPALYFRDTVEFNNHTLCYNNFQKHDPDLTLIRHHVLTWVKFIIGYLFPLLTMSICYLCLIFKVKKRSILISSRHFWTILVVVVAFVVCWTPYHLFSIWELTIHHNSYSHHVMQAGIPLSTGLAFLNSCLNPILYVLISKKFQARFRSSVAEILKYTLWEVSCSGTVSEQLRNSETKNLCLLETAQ
Experimental: as §1

Sequence of 168 GPCRs (Homo sapiens, UniProt Q9Y5N1) (Q9Y5N1 whole entry): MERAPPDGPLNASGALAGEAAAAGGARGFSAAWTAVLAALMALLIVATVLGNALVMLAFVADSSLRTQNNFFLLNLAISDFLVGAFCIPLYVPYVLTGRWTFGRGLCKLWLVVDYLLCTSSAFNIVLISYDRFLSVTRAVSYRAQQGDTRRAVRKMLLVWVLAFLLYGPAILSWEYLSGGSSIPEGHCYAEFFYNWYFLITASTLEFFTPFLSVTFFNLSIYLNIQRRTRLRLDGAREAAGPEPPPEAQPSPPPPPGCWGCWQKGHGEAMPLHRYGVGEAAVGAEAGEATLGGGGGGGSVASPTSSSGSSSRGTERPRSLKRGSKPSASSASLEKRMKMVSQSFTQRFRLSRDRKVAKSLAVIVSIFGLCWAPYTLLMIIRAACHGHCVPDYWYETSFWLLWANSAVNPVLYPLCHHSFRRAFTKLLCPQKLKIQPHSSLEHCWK

CNC(C)C(=O)c1ccc2c(c1)OCO2 (stereo not shown) [methylone, 3,4-methylenedioxy-N-methylcathinone]
activity at 10 µM ([1]; HRH3, Agonist mode, 10 uM): -3.7%
activity at 1 µM ([1]; HRH3, Agonist, 1 uM): -3.4%
activity at 10 µM ([2]; Agonist mode, 10 uM): -0.2%
activity at 1 µM ([2]; Agonist, 1 uM): 0.3%
activity at 10 µM ([3]; PTGER2, Agonist mode, 10 uM): -3.1%
activity at 1 µM ([3]; PTGER2, Agonist, 1 uM): -1.4%
activity at 10 µM ([4]; Agonist mode, 10 uM): 0.5%
activity at 1 µM ([4]; Agonist, 1 uM): 1%
activity at 1 µM ([5]; 1 uM): -0.9%
activity at 10 µM ([5]; 10 uM): -1.5%
activity at 10 µM ([6]; Agonist mode, 10 uM): -0.1%
activity at 1 µM ([6]; Agonist, 1 uM): 0.7%
activity at 10 µM ([7]; PTGER4, Agonist mode, 10 uM): -1.4%
activity at 1 µM ([7]; PTGER4, Agonist, 1 uM): -2.8%
activity at 10 µM ([8]; GALR1, Agonist mode, 10 uM): 0.6%
activity at 1 µM ([8]; GALR1, Agonist, 1 uM): 0.8%
activity at 10 µM ([9]; HRH1, Agonist mode, 10 uM): 2.5%
activity at 1 µM ([9]; HRH1, Agonist, 1 uM): 3%
activity at 10 µM ([10]; HCRTR2, Agonist mode, 10 uM): 0.2%
activity at 1 µM ([10]; HCRTR2, Agonist, 1 uM): 0.2%
activity at 10 µM ([11]; Agonist mode, 10 uM): -1%
activity at 1 µM ([11]; Agonist, 1 uM): -1.5%
activity at 10 µM ([12]; OPRK1, Agonist mode, 10 uM): -4.1%
activity at 1 µM ([12]; OPRK1, Agonist, 1 uM): -6.3%
activity at 10 µM ([13]; GPR120, Agonist mode, 10 uM): -5.8%
activity at 1 µM ([13]; GPR120, Agonist, 1 uM): -5.1%
activity at 1 µM ([14]; 1 uM): -0.1%
activity at 10 µM ([14]; 10 uM): 0%
activity at 1 µM ([15]; 1 uM): -9.1%
activity at 10 µM ([15]; 10 uM): 8.5%
activity at 10 µM ([16]; GPR92, Agonist mode, 10 uM): -3.5%
activity at 1 µM ([16]; GPR92, Agonist, 1 uM): -1.6%
activity at 10 µM ([17]; GPR1, Agonist mode, 10 uM): -0.7%
activity at 1 µM ([17]; GPR1, Agonist, 1 uM): -0.5%
